Data set [1] concerns the target T1, RXR-VDR heterodimer (Homo sapiens, UniProt P11473).
T1 construct: Add the Gal-4-RXR-DEF and VP16-VDR-LBD; expressed in transfected cells; host or cells: SaOS-2 cells
T1 sequence (P11473 127-423 limits assumed): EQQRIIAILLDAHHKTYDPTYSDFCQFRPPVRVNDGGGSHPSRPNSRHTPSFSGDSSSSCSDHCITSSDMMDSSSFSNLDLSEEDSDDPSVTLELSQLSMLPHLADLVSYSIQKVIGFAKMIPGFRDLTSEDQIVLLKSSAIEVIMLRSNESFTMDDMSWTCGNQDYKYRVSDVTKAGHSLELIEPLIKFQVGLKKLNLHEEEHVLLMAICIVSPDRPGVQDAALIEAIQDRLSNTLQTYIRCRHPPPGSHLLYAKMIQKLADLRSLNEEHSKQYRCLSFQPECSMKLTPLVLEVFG
T1 sequence (P19793 201-462 partner limits assumed): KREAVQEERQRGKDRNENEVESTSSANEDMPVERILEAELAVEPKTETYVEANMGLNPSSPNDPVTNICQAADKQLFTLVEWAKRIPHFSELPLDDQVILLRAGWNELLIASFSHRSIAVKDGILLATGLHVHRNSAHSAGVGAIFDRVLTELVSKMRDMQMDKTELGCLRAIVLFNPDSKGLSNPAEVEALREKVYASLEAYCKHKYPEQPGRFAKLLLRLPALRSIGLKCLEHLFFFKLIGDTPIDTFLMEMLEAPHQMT
Briefly: RXR-VDR heterodimerization assay (SaOS-2 cells). It counts as cell-based. The source says: 2. The RXR-VDR heterodimerization (SaOS-2 cells) test is described in the “Assay” section of the Description, infra.
1. The RXR-VDR heterodimerAssay:
This assay provides the VDR activity of a test compound.
(1) Materials and Method for RXR-VDR Heterodimerization Assay:
Luciferase Assay Reagent: • Use Steady-Glo Luciferase Reagent from Promega (Cat # E2550) Consists of: • a. E2533 Assay Substrate, lyopholized product and • b. […] DAY 2: Transfection Step 1: DNA and Media • Add plain DMEM media to tubes for mixing the DNA • Add the Reporter gene pFR-LUC • Add the Gal-4-RXR-DEF and VP16-VDR-LBD Step 2: FuGENE and Media • Prepare plain DMEM media in a ubes for mixing FuGENE • Add FuGENE 6 Transfection Reagent • Incubate Step 3: FuGENE, DNA and Media Complex • Add FuGENE Media complex from step 2 to DNA Media complex from step 1 • Incubate Step 4: FuGENE, DNA and Media Complex to-well plate • Add FuGENE-DNA-Media complex from step 3 to each plate • Incubate. […] Day 4: Luciferase Assay • Read the plates after drug treatment • Remove part of media from all the wells and leave remainder • Add Steady-Glo Luciferase Reagent mixture/wells • Incubate • Count each well using a Luminescence counter, Top Count NXT by Packard
Set a delay between plates to reduce the background.

In data set [2] the test system is rat osteocalcin promoter. Briefly: OCN (osteocalcin) promoter assay in RG-15 (ROS 17/2.8) cells. It counts as cell-based. A digest of the protocol: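 Rat osteoblast-like RG-15 (ROS 17/2.8) cells stably carry the rat osteocalcin promoter fused to luciferase. They were treated with compounds for 48 h in medium with 2% FBS and 0.01% DMSO. EC50 was derived from luciferase activity in cell lysates.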

Data set [3] in a line: Mouse hypercalcemia assay (six day, serum ionized calcium). The data set is classed as in vivo. The method, then:
5. The Mouse Hypercalcemia test is described in the “Assay” section of the Description, infra.
4. The Mouse Hypercalcemia Assay
The Mouse Hypercalcemia Assay is a six day hypercalcemia test for toxicity and selectivity. Acceptable test results are levels greater than 300 μg/kg/day. Preferred assay results are levels greater than 1000 μg/kg/day.
(4) Materials and Method for The Mouse Hypercalcemia Assay:
Weanling, virus-antibody-free, five to six weeks old female DBF mice (Harlan, Indianapolis, Ind.) are used for all the studies. Animals are allowed to acclimate to local vivarium conditions for 2 days. […] The animals then are divided into groups with 4-5 mice per group. Different doses of test compounds prepared in 10% Ethanol and 90% sesame oil are administered to mice orally via gavage for 6 days. 1α-25(OH)2D3 0.5 μg/kg/d was also given to one group of mice as the positive control. Serum ionized calcium is evaluated at 6 hours after the last dosing under isoflurane anesthesia by Ciba-Corning Ca++/PH Analyzer, (Model 634, Chiron Diagnostics Corp., East Walpole, Mass.). Raw data of group differences is assessed by analysis of variance (ANOVA) using Fisher's protected least significant difference (PLSD) where the significance level was P<0.05.

For data set [4], the system named is KERtr cells. Description: Keratinocyte proliferation assay (BrdU incorporation). It counts as cell-based. Particulars: Homo sapiens, Keratinocyte, 72 h, KERtr human skin keratinocytes, 72 hr treatment, read-out: Kera. Prolif. IC50. A general note: Incorporation of labelled thymidine or its analogues reports DNA synthesis.
In data set [5] the test system is IL-10 production in peripheral blood mononuclear cells (PBMCs). Briefly: Human IL-10 induction assay in PBMCs. The data set is classed as cell-based. Particulars: Homo sapiens, PBMC, TPA/PHA stimulated human PBMCs, IL-10 in supernatant by immunoassay. The source says:
7. The IL-10 induction assay is described in the “Assay” section of the Description, infra.
The evaluation of the novel compounds of the invention for psoriasis is done using the Keratinocyte Proliferation Assay in combination with other assays that measure inhibition of IL-2 production and stimulation of IL-10 production in peripheral blood mononuclear cells (PBMCs).
6. The IL-1 Induction Assay
This is an in vitro efficacy assay for psoriasis, abscess and adhesion. Psoriasis involves both keratinocytes and immune cells. IL-10 is a unique cytokine because it is anti-inflammatory and immunosuppressive. This assay tells us whether a VDRM is able to function as an agonist in PBMCs (primary blood mononuclear cells) or not. A lower EC50 value is desirable in this assay since a compound with a lower EC50 value will be a better agonist in PBMCs. An acceptable test result is an EC50 value of less than 200 nM.
(6) Materials and Method for Human IL-10 Induction Assay:
Isolation of peripheral blood mononuclear cells (PBMCs):
• A. Collect 50 ml of human blood and dilute with media, RPMI-1640. • B. Prepare sterile tubes with ficol. • C. Add diluted blood to tubes. • D. Centrifuge. • E. Discard the top layer and collect the cells from middle layer. • F. Divide all cells into four tubes and add media. • G. Centrifuge. • H. Aspirate off media and resuspend. • I. Collect all cells • J. Centrifuge. at 1200 rpm for 10 minutes. • K. Resuspend in RPMI-1640 with 2% FBS and count cells • Stimulation of PBMC: • L. Prepare TPA in DMSO. • M. Dissolve PHA in water. • N. Plate TPA/PHA treated PBMCs in well plates. • O. Incubate. • Treatment: • P. Prepare all compound dilutions in plain RPMI-1640 media. • Q. Add diluted compound. • R. Incubate. • Sample Collection and assay: • S. Remove all the cells by centrifugation and assay the supernatant for IL-10 by immunoassay. • 1) T. Perform IL-10 assay using anti-human IL-10 antibody coated beads, as described by the manufacturer (Linco Research Inc., St. Charles, Mo.).

For data set [6], the target named is T2, VDR (Homo sapiens, UniProt P11473).
T2 construct: the receptor expression vector pGa14-VDR-LBD (10 ng); expressed in transfected cells; host or cells: Caco-2 cells
T2 sequence (P11473 127-423 limits assumed): T1 sequence (P11473 127-423 limits assumed)
Briefly: VDR CTF (Caco-2 cell co-transfection assay). The data set is classed as cell-based. Particulars: Caco-2 cells. The method, then:
3. The VDR CTF (Caco-2 cells) test is described in the “Assay” section of the Description, infra.
2. The Caco-2 Cell Co-Transfection Assay:
The Caco-2 cell assay is an indicator for the undesirable condition of hypercalcemia. This co-transfection assay is a surrogate assay for in vivo calcemic activity of VDR ligands. […] Preferred assay results are greater than 1000 nM.
(2) Materials and Method for The Caco-2 Cell Assay:
Caco-2 cells, grown in phenol red free, DMEM (Invitrogen, Carlsbad, Calif.) containing 10% charcoal-stripped FCS (Hyclone, Logan, Utah), were transfected with Fugene 6 reagent (Roche Diagnostics, Indianapolis, Ind.). Cells (5000/well) were plated 18 h before transfection in a 96 well plate. The Cells were transfected with Gal-4-responsive reporter pFRLuc (150 ng, Stratagene, La Jolla Calif.) and the receptor expression vector pGa14-VDR-LBD (10 ng), along with Fugene 6 reagent (0.2 µl/well). The DNA-Fugene complex was formed by incubating the mixture for 30 min at room temperature. The cells were transfected in triplicate for 5 h, and treated with various concentrations of VDR ligands (form 0.01 nM to 10,000 nM concentration range) 18 h post-transfection. The luciferase activity was quantified using Steady-Glo reagent kit (Promega, Madison, Wis.) as per manufacturer's specifications.

Read-outs that look alike come from different tables or passages of the source. Where only a bound is given, the exact number is not on record here.

In the case of `CCC(CC)(c1ccc(OCC(O)C(C)(C)C)c(C)c1)c1ccc(S(=O)(=O)NCC(=O)OC)s1` (single isomer, unassigned) [Ex. 152], the EC50 was 474 nM in data set [1] and 110 nM in data set [2] (Rattus norvegicus).
As to `CCc1cc(C(CC)(CC)c2ccc(C(=O)N[C@@H](C)C(=O)O)s2)ccc1OCC(C)(O)C(C)(C)C` (single isomer, unassigned) [Ex. 110, d-3′-[4-(2-hydroxy-2,3,3-trimethylbutoxy)-3-ethylphenyl]-3′-[5-(carboxy-1-ethylamino)carbonyl-thiophen-2-yl]pentane], the EC50 in data set [2] (Rattus norvegicus) is 0.225 nM. Further, the “Mouse Hypercal” value in data set [3] is less than 300 µg/kg/day. Further, the IC50 in data set [4] amounted to 9.5 nM; in data set [5] it was 288 nM.
For `CCC(CC)(c1ccc(OCC(O)C(C)(C)C)c(C)c1)c1cc(C)c(C(=O)OC)s1` (single isomer, unassigned) [Ex. 6B], the EC50 in data set [1] stood at 323 nM; in data set [6], 1060 nM; in data set [2] (Rattus norvegicus), 326 nM.
Regarding `CCc1cc(C(CC)(CC)c2ccc(C(=O)O)s2)ccc1OCC(O)C(C)(C)C` (single isomer, unassigned) [Ex. 101, 3′-[4-(2-hydroxy-3,3-dimethylbutoxy)-3-ethylphenyl]-3′-[5-carboxy-thiophen-2-yl]pentane], the figures for the EC50 in data set [1] and in data set [2] were 379 nM and 29.4 nM, respectively. In addition, the “Mouse Hypercal” value in data set [3] is 12000 µg/kg/day.
With `CCC(CC)(c1ccc(OCS(C)(=O)=O)c(C)c1)c1cc(C)c(CCC(O)C(C)(C)C)s1` (single isomer, unassigned) [Ex. 15B], the EC50 was found to be 212 nM in data set [1] and 245 nM in data set [6].
Regarding `CCCc1cc(C(CC)(CC)c2ccc(C(=O)O)s2)ccc1OCC(C)(O)C(C)(C)C` (single isomer, unassigned) [Ex. 113, 3′-[4-(2-hydroxy-2,3,3-trimethylbutoxy)-3-n-propylphenyl]-3′-[5-carboxy-thiophen-2-yl]pentane], the figures for the EC50 in data set [1] and in data set [2] were 542 nM and 118 nM, respectively.
`CCCc1cc(C(CC)(CC)c2ccc(C(=O)O)s2)ccc1OCC(O)C(C)(C)C` (single isomer, unassigned) [Ex. 95, 3′-[4-(2-hydroxy-3,3-dimethylbutoxy)-3-n-propylphenyl]-3′-[5-carboxy-thiophen-2-yl]pentane]: the values for the EC50 in data set [1], in data set [6] and in data set [2] were 421 nM, 1180 nM and 21.4 nM, respectively. In addition, the “Mouse Hypercal” value in data set [3] is more than 6000 µg/kg/day.
As to `CCC(CC)(c1ccc(OCC(C)(O)C(C)(C)C)c(OC)c1)c1ccc(C(=O)N[C@H](C)C(=O)O)s1` (single isomer, unassigned) [Ex. 117, d-3′-[4-(2-hydroxy-2,3,3-trimethylbutoxy)-3-methoxyphenyl]-3′-[5-(carboxy-1-ethylamino)carbonyl-thiophen-2-yl]pentane], the EC50 turned out to be 2210 nM in data set [1] and 101 nM in data set [2].
`CCC(CC)(c1ccc(OCC(O)C(C)(C)C)c(C)c1)c1cc(C)c(S(=O)(=O)NCC(=O)OC)s1` (centres unmarked) [Ex. 136]: the EC50 stood at 431 nM in data set [1] and 901 nM in data set [6].
`CCC(CC)(c1ccc(OCC(O)C(C)(C)C)c(C)c1)c1ccc(C(=O)OC)s1` (centres unmarked) [Ex. 5]: the EC50 in data set [6] amounted to 1030 nM; in data set [2] (Rattus norvegicus), 146 nM.

As usually defined, the EC50 is the concentration at which the effect is half-maximal. As usually defined, the IC50 is the midpoint of a concentration-inhibition curve.

Source of the values: patent US7601850B2, “Phenyl-thiophene type vitamin D receptor modulators” (Eli Lilly and Company, priority 2002, dated 2009).
